# Reference: US11833160B2, “Ursodeoxycholic acid derivatives as HDAC inhibitors for the treatment of polycystic diseases” (UNIVERSIDAD DEL PAIS VASCO/EUSKAL HERRIKO UNIBERTSITATEA, priority 2017, dated 2023)
# How the values were obtained:
# [1] = tested on: polycystic human cholangiocytes; assay: Primary cilium length (cilium staining, confocal microscopy), polycystic cells; type: cell-based; details: after treatment
# Procedure: Cilium staining. Cells cultured on cover slips were washed with PBS, fixed with methanol, and blocked for one hour in a blocking buffer at room temperature. The γ-tubulin primary antibodies (1:100; Sigma-Aldrich, St Louis, MO) and acetylated α-tubulin primary antibodies (1:1000; Sigma-Aldrich) or IFT88 primary antibodies (1:100; ProteinTech, Rosemont, IL, USA) were incubated overnight at 4° C. After washing, Alexa Fluor 594 and 488 secondary antibodies were combined with the primary antibodies (Life Technologies, Carlsbad, CA, USA) and incubated for 2 hours at room temperature. The cover slips were placed on slides with Prolong Gold Antifade with Dapi (Invitrogen, Carlsbad, CA, USA). The slides were observed and images were taken using laser scanning confocal microscopy with a 60× objective (NIKON C1si Confocal Spectral Imaging System, NIKON Instruments Co., Melville, NY, USA). The field was magnified 4× to observe individual cilia. The images were opened with EZ-C1 3.90 Freeviewer and a scale bar was added. The images were converted to Tiff files and quantified using ImageJ Software. The scale bar saved in the image was measured and the scale established. Using the freehand tool, the cilia were traced and measurements taken.
# [2] = tested on: polycystic human cholangiocytes; assay: CFSE proliferation protocol by flow cytometry; type: cell-based
# Procedure: The proliferation of polycystic human cholangiocytes at 48 hours in the absence or presence of different doses of compound Ia (10, 50, 100, μM) in a quiescence culture medium was analyzed. To that end, the CFSE proliferation protocol (Invitrogen) was used using flow cytometry.
# ASBT = target: T1, ASBT (Homo sapiens, UniProt Q12908); assay: Uptake study, transporter ASBT (data not shown); type: in vitro ADME
# T1 construct: expressed in transfected cells
# T1 sequence (Q12908 1-348): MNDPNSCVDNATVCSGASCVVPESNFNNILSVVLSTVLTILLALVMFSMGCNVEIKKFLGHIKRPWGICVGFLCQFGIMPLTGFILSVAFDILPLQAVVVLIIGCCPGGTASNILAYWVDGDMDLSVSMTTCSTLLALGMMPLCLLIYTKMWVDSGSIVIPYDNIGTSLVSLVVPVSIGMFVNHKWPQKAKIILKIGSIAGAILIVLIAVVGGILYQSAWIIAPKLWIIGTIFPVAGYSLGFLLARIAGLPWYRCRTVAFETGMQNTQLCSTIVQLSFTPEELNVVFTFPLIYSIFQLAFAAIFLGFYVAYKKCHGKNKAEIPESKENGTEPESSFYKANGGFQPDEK
# Text: The bile acid and organic cation transporters expressed in hepatocytes and cholangiocytes were overexpressed in HepG2 cells (OCT1) and CHO cells (OCT3). The efficacy of the process was confirmed by means of measuring the abundance of mRNA (qPCR), protein (WB), and the correct insertion in the plasma membrane (immunofluorescence). The uptake studies included comparing the uptake efficiency of the compound with respect to dihydroethidium (DHE) in the case of OCT3, and sorafenib in the case of OCT1 (positive controls), as well as the sensitivity of the process to substrate inhibition induced by the joint administration of the compound and quinine. The cell content of all the compounds was determined by means of triple quadrupole HPLC-MS/MS after extraction thereof from the cell system used in each case.
# human HDAC5 = target: T2, human HDAC5 (Homo sapiens, UniProt Q9UQL6); assay: HDAC5 enzymatic activity assay (fluorogenic peptide); type: biochemical; details: 10-dose, 3-fold serial dilution, triplicate
# T2 construct: GST (N); purchased BioMol, Hamburg, Germany; host or cells: baculovirus / Sf9 cells
# T2 sequence (Q9UQL6 1-1123 isoform Q9UQL6-3): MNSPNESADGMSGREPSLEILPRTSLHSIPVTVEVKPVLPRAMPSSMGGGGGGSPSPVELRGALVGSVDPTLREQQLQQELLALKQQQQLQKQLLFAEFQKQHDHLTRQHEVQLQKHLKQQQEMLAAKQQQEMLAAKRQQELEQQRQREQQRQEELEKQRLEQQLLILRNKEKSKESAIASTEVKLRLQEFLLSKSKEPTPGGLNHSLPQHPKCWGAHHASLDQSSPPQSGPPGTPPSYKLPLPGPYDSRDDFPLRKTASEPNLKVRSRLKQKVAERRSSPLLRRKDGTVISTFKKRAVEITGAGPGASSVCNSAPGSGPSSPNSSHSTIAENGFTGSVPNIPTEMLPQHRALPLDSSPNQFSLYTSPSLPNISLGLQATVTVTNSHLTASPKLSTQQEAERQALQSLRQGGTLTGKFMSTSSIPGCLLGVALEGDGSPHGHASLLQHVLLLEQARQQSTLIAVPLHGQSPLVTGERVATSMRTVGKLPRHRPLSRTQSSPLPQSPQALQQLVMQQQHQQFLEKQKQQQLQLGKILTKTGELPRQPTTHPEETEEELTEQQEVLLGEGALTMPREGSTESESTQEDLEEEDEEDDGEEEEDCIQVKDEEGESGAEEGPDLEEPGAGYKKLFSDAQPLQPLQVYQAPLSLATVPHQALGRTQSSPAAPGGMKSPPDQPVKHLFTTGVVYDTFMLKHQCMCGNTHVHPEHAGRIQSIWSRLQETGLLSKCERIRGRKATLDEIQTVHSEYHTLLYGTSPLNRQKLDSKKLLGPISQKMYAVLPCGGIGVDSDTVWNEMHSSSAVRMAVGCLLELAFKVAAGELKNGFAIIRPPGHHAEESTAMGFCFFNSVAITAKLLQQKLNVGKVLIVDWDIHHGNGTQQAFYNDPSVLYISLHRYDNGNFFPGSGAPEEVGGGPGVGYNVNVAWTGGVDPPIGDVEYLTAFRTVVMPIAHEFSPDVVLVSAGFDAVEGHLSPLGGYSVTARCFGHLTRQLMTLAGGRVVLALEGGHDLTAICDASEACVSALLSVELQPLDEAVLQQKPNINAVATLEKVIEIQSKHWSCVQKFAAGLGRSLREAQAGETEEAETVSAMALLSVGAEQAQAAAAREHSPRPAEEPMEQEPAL
# Procedure: Peptide substrates: all HDAC assays were performed using acetylated peptide substrates labeled with 7-amino-4-methylcoumarin (AMC): • Substrate for isoforms HDAC1, 2, 3, 6, 10, 11, and HeLa nuclear extract assays: acetylated fluorogenic peptide from p53 residues 379-382 (RHKKAc). • Substrate for isoforms HDAC4, 5, 7, 9: fluorogenic Boc-L-Lys (s-trifluoroacetyl)-AMC. • Substrate for HDAC8 assays: acetylated fluorogenic peptide from p53 residues 379-382 (RHKAcKAc).
# 50 μl of peptide substrate (see “peptide substrates” section above) and an optimal concentration of the corresponding enzyme (see “enzymes” section above) in the assay buffer at a final DMSO concentration of 1% were incubated in the presence of gradient concentrations of inhibitors (10-dose IC50 mode with 3-fold serial dilution) at 30° C. for 2 hours. The reactions were carried out in a 96-well microplate for fluorometry in a 50 μl reaction volume. After the deacetylation reaction, Fluor-de-Lys-Developer (BioMol Cat. #KI-105) was added to each well to digest the deacetylated substrate, thereby producing the fluorescent signal. The reaction was carried out for 45 minutes at 30° C. with 5% CO2; the fluorescent signal was then measured using an excitation wavelength of 360 nm and an emission wavelength of 460 nm in a microplate-reading fluorometer (GeminiXS, Molecular Devices, Sunnyvale, CA). […]
# OATP1B1 = target: T3, OATP1B1 (Homo sapiens, UniProt Q9Y6L6); assay: Uptake study, transporter OATP1B1 (data not shown); type: in vitro ADME
# T3 construct: expressed in transfected cells
# T3 sequence (Q9Y6L6 1-691): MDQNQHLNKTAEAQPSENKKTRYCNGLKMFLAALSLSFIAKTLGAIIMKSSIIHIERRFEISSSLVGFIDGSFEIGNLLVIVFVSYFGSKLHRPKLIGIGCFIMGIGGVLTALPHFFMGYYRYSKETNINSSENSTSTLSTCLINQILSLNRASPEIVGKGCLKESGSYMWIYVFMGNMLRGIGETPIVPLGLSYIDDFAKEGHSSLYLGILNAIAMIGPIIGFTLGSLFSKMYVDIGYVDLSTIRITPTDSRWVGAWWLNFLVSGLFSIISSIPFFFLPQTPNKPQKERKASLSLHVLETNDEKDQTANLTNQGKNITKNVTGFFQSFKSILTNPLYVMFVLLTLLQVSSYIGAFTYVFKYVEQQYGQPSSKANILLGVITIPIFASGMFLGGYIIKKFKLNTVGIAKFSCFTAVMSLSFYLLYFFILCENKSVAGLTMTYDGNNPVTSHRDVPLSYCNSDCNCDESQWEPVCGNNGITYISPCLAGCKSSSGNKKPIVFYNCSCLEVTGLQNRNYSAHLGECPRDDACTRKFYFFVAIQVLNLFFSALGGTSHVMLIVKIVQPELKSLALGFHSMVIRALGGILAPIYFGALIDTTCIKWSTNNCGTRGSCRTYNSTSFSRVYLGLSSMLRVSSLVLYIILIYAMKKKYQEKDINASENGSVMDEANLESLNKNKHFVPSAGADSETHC
smiles,measurement,setting,value
C[C@H](CCC(=O)NCc1ccc(C(=O)NO)cc1)[C@H]1CC[C@H]2[C@@H]3[C@@H](O)C[C@@H]4C[C@H](O)CC[C@]4(C)[C@H]3CC[C@]12C [Compound Ia],"length of the cilia, polycystic human cholangiocytes",[1],significantly increased
same,proliferation of polycystic human cholangiocytes,"[2]; 48 hours, 10, 50, 100 μM, quiescence culture medium",inhibits the hyper-proliferation of polycystic human cholangiocytes in vitro in a dose-dependent manner
same,inhibition of proliferation compared with UDCA,"[2]; 48 hours, UDCA at 100 μM",with a higher intensity than UDCA
same,transport through ASBT,ASBT,not through ASBT
same,IC50,human HDAC5,14.1 µM
same,transport through OATP1B1,OATP1B1,not through ASBT or OATP1B1
